Results published in patent EP4670739A1, “ALBUMIN CONJUGATE, METHOD FOR PRODUCING SAME, AND COMPOSITION FOR TARGETING, DIAGNOSING, OR TREATING CANCER COMPRISING SAME” (Kytecbio Co., Ltd., priority 2023, dated 2024).

Test: ROS production according to lysine concentration
Settings: 10 µM B3 mixed with about 1.0 mM monomeric lysine, PBS pH 7.4, light of about 530 nm
Protocol: • i) 1.0 mM lysine (hereinafter, Lys) was mixed in PBS buffer solution (pH 7.4) and irradiated with light of about 530 nm. The fluorescence generated over time was measured using a Scinco FS-2, and results thereof are shown in FIG. 7A. • ii) The result of mixing 10 µM boron-containing compound B3 instead of the 1.0 mM lysine (Lys) is shown in FIG. 7B, iii) the result of mixing 10 µM boron-containing compound B3 and 0.1 mM lysine (Lys) instead of the 1.0 mM lysine (Lys) is shown in FIG. 7C, and iv) the result of mixing 10 µM boron-containing compound B3 and 1.0 mM lysine (Lys) instead of the 1.0 mM lysine (Lys) is shown in FIG. 7D.

## O=Cc1cc2ccccc2cc1NCc1ccccc1B(O)O [B3]
  reactive oxygen species generated: relatively large amount
